Laboratory results taken from EP4691458A1, “SELF-MICROEMULSION PHARMACEUTICAL PREPARATION COMPOSITION CONTAINING ALK KINASE INHIBITOR AND PREPARATION METHOD THEREFOR” (Shouyao Holdings (Beijing) Co., Ltd., priority 2023, dated 2024).

How the values were obtained:
[1] = Solubility of the compound of formula (I) at different pH; assay type: physicochemical
Procedure: (§1) The compound of formula (I) has strong hydrophobicity, poor water solubility, and significant pH dependence. It has high solubility at low pH (about 30 mg/ml at pH 1.2), and the solubility decreases sharply with increasing pH (about 10 ug/ml in water). […] Therefore, it is an urgent problem to overcome the shortcomings of the compound of formula (I), such as strong hydrophobicity, poor water solubility, and thermal instability, and to prepare it into a formulation with stable quality, good patient compliance, and wide clinical applicability.

[2] = Thermal stability of the compound of formula (I); assay type: physicochemical; details: degradation impurities generated at high temperatures
Procedure: as §1

For `COc1cc(N2CCC(N(C)C)CC2)ccc1Nc1nc2c(c(Nc3ccccc3S(=O)(=O)C(C)C)n1)CCN2` [compound of formula (I), N^2-(4-(4-(dimethylamino)piperidin-1-yl)-2-methoxyphenyl)-N^4-(2-(isopropylsulfonyl)phenyl)-6,7-dihydro-5H-pyrrolo[2,3-d]pyrimidine-2,4-diamine], the solubility ([1]; in water) was ~0.01 mg/mL, the solubility ([1]; simulated gastric fluid, at pH 1.2) was ~30 mg/mL and the thermal stability [2] was “thermally unstable”.
